According to patent publication US9493441B2, “Acyclic cyanoethylpyrazoles as janus kinase inhibitors” (Merck Sharp & Dohme Corp., priority 2011, dated 2016):

Tests used:
JAK2 = JAK2 (Homo sapiens (Human), UniProt O60674); test: Jak biochemical HTRF assay, JAK2; conditions: JAK2 IC50 (nM), recombinant GST-tagged catalytic domain, [ATP] […]
JAK1 = JAK1 (Homo sapiens (Human), UniProt P23458); test: Jak biochemical HTRF assay, JAK1; conditions: JAK1 IC50 (nM), recombinant GST-tagged catalytic domain, [ATP] 31.8 μM
JAK1, sequence (P23458 875-1153): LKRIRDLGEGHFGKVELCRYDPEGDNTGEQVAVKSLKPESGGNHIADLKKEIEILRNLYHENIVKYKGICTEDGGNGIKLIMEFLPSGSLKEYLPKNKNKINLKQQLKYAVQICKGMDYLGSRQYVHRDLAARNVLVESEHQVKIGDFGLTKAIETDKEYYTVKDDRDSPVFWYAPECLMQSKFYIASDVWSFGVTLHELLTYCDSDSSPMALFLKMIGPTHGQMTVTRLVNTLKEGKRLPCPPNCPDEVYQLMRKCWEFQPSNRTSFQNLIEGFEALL

JAK2, sequence (O60674 849-1124): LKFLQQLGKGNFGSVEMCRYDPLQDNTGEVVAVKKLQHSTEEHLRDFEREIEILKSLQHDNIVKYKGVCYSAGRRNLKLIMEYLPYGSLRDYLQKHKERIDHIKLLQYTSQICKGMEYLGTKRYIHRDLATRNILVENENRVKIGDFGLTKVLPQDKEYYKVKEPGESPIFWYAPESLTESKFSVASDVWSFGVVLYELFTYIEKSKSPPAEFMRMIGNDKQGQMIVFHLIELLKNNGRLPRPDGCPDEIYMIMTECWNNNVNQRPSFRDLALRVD

SMILES	IC50 (JAK2) [nM]	IC50 (JAK1) [nM]
N#CC[C@@H](C1CCN(C(=O)OCC2CCOC2)CC1)n1cc(C(N)=O)c(Nc2ccc(F)cc2)n1 (stereo partly drawn) [Example 11-12, tetrahydrofuran-3-ylmethyl 4-[(1S)-1-{4-carbamoyl-3-[(4-fluorophenyl)amino]-1H-pyrazol-1-yl}-2-cyanoethyl]piperidine-1-carboxylate]	1500	181
N#CC[C@@H](C1CCN(C(=O)OCCN2CCOCC2)CC1)n1cc(C(N)=O)c(Nc2ccc(F)cc2)n1 [Example 11-13, 2-morpholin-4-ylethyl 4-[(1S)-1-{4-carbamoyl-3-[(4-fluorophenyl)amino]-1H-pyrazol-1-yl}-2-cyanoethyl]piperidine-1-carboxylate]	1500	753
COCCOC(=O)N1CCC([C@H](CC#N)n2cc(C(N)=O)c(Nc3ccc(F)cc3)n2)CC1 [Example 12-1, 2-Methoxyethyl 4-[(1S)-1-{4-carbamoyl-3-[(4-fluorophenyl)amino]-1H-pyrazol-1-yl}-2-cyanoethyl]piperidine-1-carboxylate]	1500	181
Cc1c(Cl)ncnc1N1CCC([C@H](CC#N)n2cc(C(N)=O)c(Nc3ccc(F)cc3)n2)CC1 [Example 13, 1-{(1S)-1-[1-(6-Chloro-5-methylpyrimidin-4-yl)piperidin-4-yl]-2-cyanoethyl}-3-[(4-fluorophenyl)amino]-1H-pyrazole-4-carboxamide]	1500	823

More lines, now with the values ahead:

IC50 (JAK2) [nM]	IC50 (JAK1) [nM]	SMILES
425	7	N#CC[C@@H](C1CCN(C(=O)OCC(F)(F)F)CC1)n1cc(C(N)=O)c(Nc2ccc(F)cc2)n1 [Example 11-7, 2,2,2-trifluoroethyl 4-[(1S)-1-{4-carbamoyl-3-[(4-fluorophenyl)amino]-1H-pyrazol-1-yl}-2-cyanoethyl]piperidine-1-carboxylate]
1500	220	N#CC[C@@H](C1CCN(C(=O)OC2CCOCC2)CC1)n1cc(C(N)=O)c(Nc2ccc(F)cc2)n1 [Example 11-8, tetrahydro-2H-pyran-4-yl 4-[(1S)-1-{4-carbamoyl-3-[(4-fluorophenyl)amino]-1H-pyrazol-1-yl}-2-cyanoethyl]piperidine-1-carboxylate]
1030	108	COCC(C)OC(=O)N1CCC([C@H](CC#N)n2cc(C(N)=O)c(Nc3ccc(F)cc3)n2)CC1 (stereo partly drawn) [Example 11-9, 2-methoxy-1-methylethyl 4-[(1S)-1-{4-carbamoyl-3-[(4-fluorophenyl)amino]-1H-pyrazol-1-yl}-2-cyanoethyl]piperidine-1-carboxylate]
1160	44	N#CC[C@@H](C1CCN(C(=O)OCC2CC2)CC1)n1cc(C(N)=O)c(Nc2ccc(F)cc2)n1 [Example 11-10, cyclopropylmethyl 4-[(1S)-1-{4-carbamoyl-3-[(4-fluorophenyl)amino]-1H-pyrazol-1-yl}-2-cyanoethyl]piperidine-1-carboxylate]
1040	46	CC(OC(=O)N1CCC([C@H](CC#N)n2cc(C(N)=O)c(Nc3ccc(F)cc3)n2)CC1)C(F)(F)F (stereo partly drawn) [Example 11-11, 2,2,2-trifluoro-1-methylethyl 4-[(1S)-1-{4-carbamoyl-3-[(4-fluorophenyl)amino]-1H-pyrazol-1-yl}-2-cyanoethyl]piperidine-1-carboxylate]
